Consider 8 molecules from patent US6734206B1, “3-oxa-8-azaprostaglandin analogs as agents for lowering intraocular pressure” (Allergan, Inc., priority 2003, dated 2004).

Data set [1] deals with T1, hEP4 (Homo sapiens, UniProt P35408).
T1 construct: expressed in transfected cells
Kind of data set: Functional data, human EP4 receptor. The data set is classed as cell-based. The note with it: NA = not active. Here is the method:
(§1) Plasmids encoding the human EP1, EP2, EP3, EP4, FP, TP, IP and DP receptors were prepared by cloning the respective coding sequences into the eukaryotic expression vector pCEP4 (Invitrogen). The pCEP4 vector contains an Epstein Barr virus (EBV) origin of replication, which permits episomal replication in primate cell lines expressing EBV nuclear antigen (EBNA-1). It also contains a hygromycin resistance gene that is used for eukaryotic selection. The cells employed for stable transfection were human embryonic kidney cells (HEK-293) that were transfected with and express the EBNA-1 protein. These HEK-293-EBNA cells (Invitrogen) were grown in medium containing Geneticin (G418) to maintain expression of the EBNA-1 protein. HEK-293 cells were grown in DMEM with 10% fetal bovine serum (FBS), 250 μg ml^−1 G418 (Life Technologies) and 200 μg ml^−1 gentamicin or penicillin/streptomycin.
(§2) For transfection, the cells were grown to 50-60% confluency on 10 cm plates. The plasmid pCEP4 incorporating cDNA inserts for the respective human prostanoid receptor (20 μg) was added to 500 μl of 250 mM CaCl2. HEPES buffered saline×2 (2×HBS, 280 mM NaCl, 20 mM HEPES acid, 1.5 mM Na2HPO4, pH 7.05-7.12) was then added dropwise to a total of 500 μl, with continuous vortexing at room temperature. After 30 min, 9 ml DMEM were added to the mixture. The DNA/DMEM/calcium phosphate mixture was then added to the cells, which had been previously rinsed with 10 ml PBS. The cells were then incubated for 5 hr at 37° C. in humidified 95% air/5% CO2. The calcium phosphate solution was then removed and the cells were treated with 10% glycerol in DMEM for 2 min. The glycerol solution was then replaced by DMEM with 10% FBS. The cells were incubated overnight and the medium was replaced by DMEM/10% FBS containing 250 μg ml^−1 G418 and penicillin/streptomycin. The following day hygromycin B was added to a final concentration of 200 μg ml^−1.
(§3) Ten days after transfection, hygromycin B resistant clones were individually selected and transferred to a separate well on a 24 well plate. At confluence each clone was transferred to one well of a 6 well plate, and then expanded in a 10 cm dish. Cells were maintained under continuous hygromycin selection until use.

Data set [2] concerns the target T2, hTP (Homo sapiens, UniProt P21731).
T2 construct: expressed in transfected cells
T2 sequence (P21731 1-343): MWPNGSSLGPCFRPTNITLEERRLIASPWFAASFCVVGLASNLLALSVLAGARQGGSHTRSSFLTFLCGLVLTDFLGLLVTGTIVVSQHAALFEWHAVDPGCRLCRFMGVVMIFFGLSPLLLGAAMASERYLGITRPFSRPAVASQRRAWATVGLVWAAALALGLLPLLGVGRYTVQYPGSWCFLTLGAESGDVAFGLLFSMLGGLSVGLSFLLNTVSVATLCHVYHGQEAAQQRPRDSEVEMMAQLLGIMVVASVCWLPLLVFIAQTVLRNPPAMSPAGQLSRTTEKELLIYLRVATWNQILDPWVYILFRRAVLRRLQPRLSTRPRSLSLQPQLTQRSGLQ
Briefly: Functional data, human TP receptor. The data set is classed as cell-based. The note with it: NA = not active. The protocol:
as §1, §2, §3

The target in data set [3] is T1, hEP4. Kind of data set: Radioligand binding, human EP4 receptor. The note with it: NA = not active. The protocol:
as §1
For transfection, the cells were grown to 50-60% confluency on 10 cm plates. The plasmid pCEP4 incorporating cDNA inserts for the respective human prostanoid receptor (20 μg) was added to 500 μl of 250 mM CaCl2. HEPES buffered saline×2 (2×HBS, 280 mM NaCl, 20 mM HEPES acid, 1.5 mM Na2HPO4, pH 7.05-7.12) was then added dropwise to a total of 500 μl, with continuous vortexing at room temperature. After 30 min, 9 ml DMEM were added to the mixture. The DNA/DMEM/calcium phosphate mixture was then added to the cells, which had been previously rinsed with 10 ml PBS. The cells were then incubated for 5 hr at 37° C. in humidified 95% air/5% CO2. […]
Radioligand binding studies on plasma membrane fractions prepared for cells stably transfected with the cat or human receptor were performed as follows. […] The pellet was then resuspended in TME buffer to provide a final protein concentration of 1 mg/ml, as determined by Bio-Rad assay. […]
The binding of [^3H](N) PGE2 (specific activity 165 Ci/mmol) was determined in duplicate and in at least 3 separate experiments. […] Competition studies were performed using a final concentration of 2.5 or 5 nM [^3H](N) PGE2 and non-specific binding was determined with 10^−5 M unlabelled PGE2.

In data set [4] the target is T3, hEP1 (Homo sapiens, UniProt P34995).
T3 construct: expressed in transfected cells
T3 sequence (P34995 1-402): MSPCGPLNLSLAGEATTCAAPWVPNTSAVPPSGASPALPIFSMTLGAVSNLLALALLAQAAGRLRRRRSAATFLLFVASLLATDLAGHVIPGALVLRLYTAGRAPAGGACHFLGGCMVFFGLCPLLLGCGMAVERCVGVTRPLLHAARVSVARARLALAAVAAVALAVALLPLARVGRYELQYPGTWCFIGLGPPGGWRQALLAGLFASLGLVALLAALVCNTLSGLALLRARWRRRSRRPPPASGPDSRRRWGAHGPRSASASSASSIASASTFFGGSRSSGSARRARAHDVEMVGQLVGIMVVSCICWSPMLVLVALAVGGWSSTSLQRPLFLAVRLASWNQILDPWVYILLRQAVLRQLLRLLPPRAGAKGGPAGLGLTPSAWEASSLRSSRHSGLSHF
Briefly: Functional data, human EP1 receptor. The data set is classed as cell-based. The note with it: NA = not active. Here is the method:
as §1, §2
Ten days after transfection, hygromycin B resistant clones were individually selected and transferred to a separate well on a 24 well plate. […]

Data set [5] concerns the target T4, hEP3A (Homo sapiens, UniProt P43115).
T4 construct: expressed in transfected cells
T4 sequence (P43115 1-390): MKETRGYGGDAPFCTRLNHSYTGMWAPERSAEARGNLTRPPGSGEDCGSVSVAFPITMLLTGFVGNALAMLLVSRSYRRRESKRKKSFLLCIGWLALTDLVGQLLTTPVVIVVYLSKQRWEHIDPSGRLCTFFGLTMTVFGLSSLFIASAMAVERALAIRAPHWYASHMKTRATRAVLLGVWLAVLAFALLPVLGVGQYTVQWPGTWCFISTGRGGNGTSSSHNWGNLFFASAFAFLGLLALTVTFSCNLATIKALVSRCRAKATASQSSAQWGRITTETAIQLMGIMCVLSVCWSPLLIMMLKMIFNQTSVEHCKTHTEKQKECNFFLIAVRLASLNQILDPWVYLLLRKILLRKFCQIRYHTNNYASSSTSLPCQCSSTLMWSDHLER
Briefly: Functional data, human EP3A receptor. The data set is classed as cell-based. The note with it: NA = not active. Here is the method:
as §1
For transfection, the cells were grown to 50-60% confluency on 10 cm plates. The plasmid pCEP4 incorporating cDNA inserts for the respective human prostanoid receptor (20 μg) was added to 500 μl of 250 mM CaCl2. HEPES buffered saline×2 (2×HBS, 280 mM NaCl, 20 mM HEPES acid, 1.5 mM Na2HPO4, pH 7.05-7.12) was then added dropwise to a total of 500 μl, with continuous vortexing at room temperature. After 30 min, 9 ml DMEM were added to the mixture. […]

Data set [6] has as its system normotensive dogs. Briefly: Intraocular pressure in dogs, applanation pneumatonometry. The data set is classed as in vivo, dog. The settings on record: topical once daily dosing, 0.1%, at 52 h, normotensive dogs (n=8). Here is the method:
(§4) The effects of the compounds of this invention on intraocular pressure may be measured as follows. The compounds are prepared at the desired concentrations in a vehicle comprising 0.1% polysorbate 80 and 10 mM TRIS base. Dogs are treated by administering 25 μl to the ocular surface, the contralateral eye receives vehicle as a control. Intraocular pressure is measured by applanation pneumatonometry. A topical once daily dosing of (4-{(R)-2-[(E)-4-(3-chlorophenyl)-3-hydroxy-but-1-enyl]-5-oxo-pyrrolidin-1-yl}-butoxy)-acetic acid [example 8] […] The maximum ocular surface hyperemia score was 1.5 (1.5 at 26, 50 and 52 h).

Data set [7] relates to normotensive dogs. Briefly: Ocular surface hyperemia in dogs. The data set is classed as in vivo, dog. The settings on record: topical once daily dosing, 0.1%, 1.5 at 26, 50 and 52 h. Here is the method: as §4

SMILES strings stand for the structures. Bounds are passed on as bounds.

T1 sequence (P35408 whole entry): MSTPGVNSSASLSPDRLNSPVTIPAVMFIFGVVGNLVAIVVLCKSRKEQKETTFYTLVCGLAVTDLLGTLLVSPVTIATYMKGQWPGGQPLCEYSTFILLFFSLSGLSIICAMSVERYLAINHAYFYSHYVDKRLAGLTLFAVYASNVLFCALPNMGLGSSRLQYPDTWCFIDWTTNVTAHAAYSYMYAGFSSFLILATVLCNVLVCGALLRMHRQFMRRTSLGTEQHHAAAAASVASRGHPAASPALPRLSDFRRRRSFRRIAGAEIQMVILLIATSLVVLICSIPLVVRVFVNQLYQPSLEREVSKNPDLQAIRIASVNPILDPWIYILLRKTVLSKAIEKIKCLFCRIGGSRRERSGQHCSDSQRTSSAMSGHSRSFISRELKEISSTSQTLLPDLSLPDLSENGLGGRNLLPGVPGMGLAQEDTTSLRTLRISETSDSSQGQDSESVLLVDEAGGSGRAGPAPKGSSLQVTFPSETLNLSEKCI

In the case of `COC(=O)COCCCCN1C(=O)CCC1CCC(=O)Cc1cccc(Cl)c1` (stereo in doubt) [Example 3, (4-{(R)-2-[4-(3-Chlorophenyl)-3-oxo-butyl]-5-oxo-pyrrolidin-1-yl}-butoxy)-acetic Acid Methyl Ester], the EC50 in data set [1] and in data set [2] was > 10000 nM throughout.
For the molecule `O=C(O)COCCCCN1C(=O)CCC1CCC(=O)Cc1cccc(Cl)c1` (stereo in doubt) [Example 4, (4-{(R)-2-[4-(3-Chlorophenyl)-3-oxo-butyl]-5-oxo-pyrrolidin-1-yl}-butoxy)-acetic Acid], the EC50 (usually the concentration that produces a half-maximal response) in data set [1] is 1720 nM; in data set [2] it was > 10000 nM. In addition, the half-inhibitory concentration (IC50) (usually the point on the concentration scale where inhibition reaches its midpoint) in data set [3] was 3100 nM.
Turning to `COC(=O)COCCCCN1C(=O)CC[C@@H]1CC[C@H](O)Cc1cccc(Cl)c1` (stereo in doubt) [Example 5, (4-{(R)-2-[4-(3-Chlorophenyl)-3-hydroxy-butyl]-5-oxo-pyrrolidin-1-yl}-butoxy)-acetic Acid Methyl Ester], the EC50 in data set [4] was > 10000 nM; in data set [1] it was 1780 nM.
As for `O=C(O)COCCCCN1C(=O)CC[C@@H]1CC[C@H](O)Cc1cccc(Cl)c1` (stereo in doubt) [Example 6, (4-{(R)-2-[4-(3-Chlorophenyl)-3-hydroxy-butyl]-5-oxo-pyrrolidin-1-yl}-butoxy)-acetic Acid], the figures for the EC50 in data set [4], in data set [1] and in data set [2] were 3810 nM, 192 nM and > 10000 nM, respectively. This molecule also displayed an IC50 in data set [3] of 562 nM.
Turning to `COC(=O)COCCCCN1C(=O)CC[C@@H]1/C=C/C(=O)Cc1cccc(Cl)c1` [Example 1, (4-{(R)-2-[(E)-4-(3-chlorolphenyl)-3-oxo-but-1-enyl]-5-oxo-pyrrolidin-1-yl}-butoxy)-acetic Acid Methyl Ester], the half-maximal effective concentration (EC50) was determined as 721 nM in data set [4] and 61 nM in data set [1].
For the molecule `O=C(O)COCCCCN1C(=O)CC[C@@H]1/C=C/C(=O)Cc1cccc(Cl)c1` [Example 2], the values for the EC50 in data set [2] and in data set [5] were < 10000 nM and > 10000 nM, respectively.
As to `COC(=O)COCCCCN1C(=O)CC[C@@H]1/C=C/[C@H](O)Cc1cccc(Cl)c1` [Example 7, (4-{(R)-2-[(E)-4-(3-Chlorophenyl)-3-hydroxy-but-1-enyl]-5-oxo-pyrrolidin-1-yl}-butoxy)-acetic Acid Methyl Ester], the EC50 in data set [1] was > 10000 nM.
In the case of `O=C(O)COCCCCN1C(=O)CC[C@@H]1/C=C/[C@H](O)Cc1cccc(Cl)c1` [Example 8, (4-{(R)-2-[(E)-4-(3-Chlorolphenyl)-3-hydroxy-but-1-enyl]-5-oxo-pyrrolidin-1-yl}-butoxy)-acetic Acid], the EC50 in data set [1] is 11 nM; in data set [2], > 10000 nM. The “maximum IOP decrease from baseline” value in data set [6] stood at 4.9 mmHg. For the same molecule, the “maximum IOP decrease from baseline (percent)” value in data set [6] is reported as 26.6%. Moreover, in data set [7], the “maximum ocular surface hyperemia score” value came to 1.5. In data set [3], this molecule came in with an IC50 of 30 nM.
